Measurements taken from PubChem BioAssay AID286 (DTP/NCI, 2004).
Inconclusive results and toxic doses are left out.

System: BDF1 mice, M5076 sarcoma ip, median survival T/C
Assay: NCI In Vivo Anticancer Drug Screen. Data for tumor model Sarcoma M5076 (intraperitoneal) in B6D2F1 (BDF1) mice
Conditions: endpoint: median survival time, higher = longer survival
Description: The antitumor activity of compounds was measured in mice bearing transplantable tumors. Survival or tumor size were measured and the results are expressed as the measurement made in the treated group (T) divided by the measurement made in the vehicle treated control group (C). The tumor model used in this assay is Sarcoma M5076 (intraperitoneal) in B6D2F1 (BDF1) mice

[1] = dose: 25.0 mg/kg/injection, schedule: Q04DX004 (ip), vehicle: saline
[2] = dose: 50.0 mg/kg/injection, schedule: Q04DX004 (ip), vehicle: saline
[3] = dose: 100.0 mg/kg/injection, schedule: Q04DX004 (ip), vehicle: saline

With `COc1cccc2c1C(=O)c1c(O)c3c(c(O)c1C2=O)C[C@@](O)(C(=O)CO)C[C@@H]3OC1CC(N)C(O)C(C)O1` (some centres not stated) the T/C (dose: 0.5 mg/kg/injection, schedule: Q04DX005 (ip), vehicle: saline) was 196 % of control, the T/C (dose: 0.75 mg/kg/injection, schedule: Q04DX005 (ip), vehicle: saline) was 204 % of control and the T/C (dose: 1.0 mg/kg/injection, schedule: Q04DX005 (ip), vehicle: saline) was 197 % of control. For the same compound, the T/C (dose: 1.5 mg/kg/injection, schedule: Q01DX007 (ip), vehicle: saline) was 171 % of control, the T/C (dose: 1.5 mg/kg/injection, schedule: Q04DX005 (ip), vehicle: saline) was 277 % of control and the T/C (dose: 2.0 mg/kg/injection, schedule: Q04DX004 (ip), vehicle: saline) was 160 % of control. For the same compound, the T/C (dose: 2.0 mg/kg/injection, schedule: Q04DX005 (ip), vehicle: saline) was 401 % of control, the T/C (dose: 2.1 mg/kg/injection, schedule: Q01DX007 (ip), vehicle: saline) was 176 % of control and the T/C (dose: 3.0 mg/kg/injection, schedule: Q01DX007 (ip), vehicle: saline) was 216 % of control. The T/C (dose: 3.0 mg/kg/injection, schedule: Q04DX005 (ip), vehicle: saline) was 308 % of control, the T/C (dose: 3.4 mg/kg/injection, schedule: Q04DX003 (ip), vehicle: saline) was 152 % of control and the T/C (dose: 4.0 mg/kg/injection, schedule: Q04DX004 (ip), vehicle: saline) was 190 % of control. For the same compound, the T/C (dose: 4.0 mg/kg/injection, schedule: Q04DX005 (ip), vehicle: saline) was 208 % of control, the T/C (dose: 5.0 mg/kg/injection, schedule: Q04DX003 (ip), vehicle: saline) was 176 % of control and the T/C (dose: 6.0 mg/kg/injection, schedule: Q04DX005 (ip), vehicle: saline) was 308 % of control. The T/C (dose: 7.0 mg/kg/injection, schedule: Q01DX001 (ip), vehicle: saline) was 159 % of control, the T/C (dose: 7.5 mg/kg/injection, schedule: Q04DX003 (ip), vehicle: saline) was 120 % of control and the T/C (dose: 8.0 mg/kg/injection, schedule: Q04DX004 (ip), vehicle: saline) was 190 % of control. The T/C (dose: 10.0 mg/kg/injection, schedule: Q01DX001 (ip), vehicle: saline) was 159 % of control and the T/C (dose: 15.0 mg/kg/injection, schedule: Q01DX001 (ip), vehicle: saline) was 185 % of control.

`COc1cc2c(cc1OC)C1C(=O)c3ccc4c(c3OC1CO2)CC(C(C)(O)CO)O4` (configuration not stated) was tested, and the T/C (dose: 2.0 mg/kg/injection, schedule: Q01DX009 (ip), vehicle: DMSO) was 110 % of control, the T/C (dose: 4.0 mg/kg/injection, schedule: Q01DX009 (ip), vehicle: DMSO) was 96 % of control and the T/C (dose: 8.0 mg/kg/injection, schedule: Q01DX009 (ip), vehicle: DMSO) was 99 % of control.

In the case of `COc1cc2cc(c1Cl)N(C)C(=O)C[C@H](OC(=O)[C@H](C)N(C)C(C)=O)[C@]1(C)O[C@H]1[C@H](C)[C@@H]1C[C@@](O)(NC(=O)O1)[C@H](OC)C=C/C=C(\C)C2`, the T/C (dose: 37.0 micrograms/kg/injection, schedule: Q04DX004 (ip), vehicle: saline) is reported as 117 % of control, the T/C (dose: 37.0 micrograms/kg/injection, schedule: Q04DX005 (ip), vehicle: saline) is reported as 113 % of control and the T/C (dose: 75.0 micrograms/kg/injection, schedule: Q04DX004 (ip), vehicle: saline) is reported as 112 % of control. For the same compound, the T/C (dose: 75.0 micrograms/kg/injection, schedule: Q04DX005 (ip), vehicle: saline) was 123 % of control and the T/C (dose: 150.0 micrograms/kg/injection, schedule: Q04DX004 (ip), vehicle: saline) was 119 % of control.

For `C[C@@]12C(=O)OC(=O)[C@]1(C)[C@H]1CC[C@@H]2O1`, the T/C (dose: 0.25 mg/kg/injection, schedule: Q01DX009 (ip), vehicle: acetone) was 115 % of control, the T/C (dose: 0.5 mg/kg/injection, schedule: Q01DX009 (ip), vehicle: acetone) was 120 % of control and the T/C (dose: 62.5 micrograms/kg/injection, schedule: Q01DX009 (ip), vehicle: acetone) was 113 % of control. For the same compound, the T/C (dose: 250.0 micrograms/kg/injection, schedule: Q01DX009 (ip), vehicle: acetone) was 115 % of control and the T/C (dose: 1000.0 micrograms/kg/injection, schedule: Q01DX009 (ip), vehicle: acetone) was 150 % of control.

`N#CC(C#N)=NNc1ccc2cn[nH]c2c1` was tested, and the T/C (dose: 12.5 mg/kg/injection, schedule: Q04DX004 (ip), vehicle: Klucel (hydroxypropylcellulose) (HPC)) was 105 % of control, the T/C (dose: 25.0 mg/kg/injection, schedule: Q04DX004 (ip), vehicle: Klucel (hydroxypropylcellulose) (HPC)) was 95 % of control and the T/C (dose: 50.0 mg/kg/injection, schedule: Q04DX004 (ip), vehicle: Klucel (hydroxypropylcellulose) (HPC)) was 90 % of control. The T/C (dose: 100.0 mg/kg/injection, schedule: Q04DX004 (ip), vehicle: Klucel (hydroxypropylcellulose) (HPC)) was 103 % of control.

With `CC(=O)/C(=C\c1ccc(Cl)c(Cl)c1)C(=O)CCN(C)C` the T/C (dose: 12.5 mg/kg/injection, schedule: Q04DX004 (ip), vehicle: saline) was 100 % of control, the T/C [1] was 97 % of control and the T/C [2] was 101 % of control. The T/C [3] was 86 % of control.

For `COc1cc(NCc2ccc3nc(N)nc(N)c3c2C)cc(OC)c1OC` (tested in a mixture with another compound), the T/C (dose: 10.0 mg/kg/injection, schedule: Q04DX005 (ip), vehicle: water) was 108 % of control and the T/C (dose: 40.0 mg/kg/injection, schedule: Q04DX005 (ip), vehicle: water) was 120 % of control.

For `CN=C(N)c1ccc(N=C(N)c2ccc(C(N)=Nc3ccc(C(N)=NC)cc3)cc2)cc1`, the T/C (dose: 1.3 mg/kg/injection, schedule: Q01DX005 (iv), vehicle: saline) was 98 % of control, the T/C (dose: 1.3 mg/kg/injection, schedule: Q01DX005 (iv), vehicle: water) was 100 % of control and the T/C (dose: 3.6 mg/kg/injection, schedule: Q01DX005 (iv), vehicle: saline) was 104 % of control. The T/C (dose: 3.6 mg/kg/injection, schedule: Q01DX005 (iv), vehicle: water) was 100 % of control, the T/C (dose: 3.75 mg/kg/injection, schedule: Q01DX005 (iv), vehicle: water) was 99 % of control and the T/C (dose: 3.75 mg/kg/injection, schedule: Q01DX005 (sc), vehicle: water) was 101 % of control. For the same compound, the T/C (dose: 6.0 mg/kg/injection, schedule: Q01DX005 (iv), vehicle: saline) was 104 % of control, the T/C (dose: 6.0 mg/kg/injection, schedule: Q01DX005 (iv), vehicle: water) was 99 % of control and the T/C (dose: 7.5 mg/kg/injection, schedule: Q01DX005 (iv), vehicle: water) was 108 % of control. The T/C (dose: 15.0 mg/kg/injection, schedule: Q01DX005 (ip), vehicle: water) was 165 % of control, the T/C (dose: 15.0 mg/kg/injection, schedule: Q01DX005 (sc), vehicle: water) was 120 % of control and the T/C (dose: 18.0 mg/kg/injection, schedule: Q01DX005 (ip), vehicle: saline) was 164 % of control. The T/C (dose: 18.0 mg/kg/injection, schedule: Q01DX005 (ip), vehicle: water) was 164 % of control, the T/C (dose: 30.0 mg/kg/injection, schedule: Q01DX005 (ip), vehicle: saline) was 180 % of control and the T/C (dose: 30.0 mg/kg/injection, schedule: Q01DX005 (ip), vehicle: water) was 172 % of control.

`C[C@@](O)(/C=C/[C@H]1CC=CC(=O)O1)[C@@H](C[C@@H](O)\C=C/C=C\C=C\CO)OP(=O)(O)O` was tested, and the T/C (dose: 1.0 mg/kg/injection, schedule: Q01DX009 (ip), vehicle: water) was 112 % of control, the T/C (dose: 2.0 mg/kg/injection, schedule: Q01DX009 (ip), vehicle: water) was 106 % of control and the T/C (dose: 4.0 mg/kg/injection, schedule: Q01DX009 (ip), vehicle: water) was 98 % of control. The T/C (dose: 8.0 mg/kg/injection, schedule: Q01DX009 (ip), vehicle: water) was 120 % of control.

In the case of `CN(C)c1nc(N(C)C)nc(N(C)C)n1`, the T/C (dose: 40.0 mg/kg/injection, schedule: Q04DX005 (ip), vehicle: Klucel (hydroxypropylcellulose) (HPC)) is reported as 160 % of control, the T/C (dose: 80.0 mg/kg/injection, schedule: Q04DX005 (ip), vehicle: Klucel (hydroxypropylcellulose) (HPC)) is reported as 188 % of control and the T/C (dose: 100.0 mg/kg/injection, schedule: Q04DX005 (ip), vehicle: Klucel (hydroxypropylcellulose) (HPC)) is reported as 112 % of control. For the same compound, the T/C (dose: 160.0 mg/kg/injection, schedule: Q04DX005 (ip), vehicle: Klucel (hydroxypropylcellulose) (HPC)) was 104 % of control, the T/C (dose: 200.0 mg/kg/injection, schedule: Q04DX005 (ip), vehicle: Klucel (hydroxypropylcellulose) (HPC)) was 119 % of control and the T/C (dose: 400.0 mg/kg/injection, schedule: Q04DX005 (ip), vehicle: Klucel (hydroxypropylcellulose) (HPC)) was 123 % of control.

`COC1N(C2CC(O)C(CO)O2)C(=O)NC(=O)C1(F)Br` (configuration not stated) was tested, and the T/C [1] was 110 % of control, the T/C [2] was 115 % of control and the T/C [3] was 116 % of control. The T/C (dose: 400.0 mg/kg/injection, schedule: Q04DX004 (ip), vehicle: saline) was 124 % of control.
